From patent US20210403415A1, “COMPOUNDS AND METHODS TO ATTENUATE TUMOR PROGRESSION AND METASTASIS” (THE TRUSTEES OF INDIANA UNIVERSITY, priority 2018, published 2021) come the findings set out here.

Where two headings read alike, the source gives them in different places.

The target of test [1] is T1, TEAD4.Yap1 interaction (Homo sapiens, UniProt Q15561). In words: Fluorescence polarization, GST-TEAD4 with FAM-Yap60-99 peptide. In kind it is binding. On the set-up: TEAD4 (217-434), TEAD4 (217-434) Cys367Ser mutant and Yap1 (Full-length) were expressed as GST-fusion proteins; made in house; host or cells: E. coli BL-21 (DE3), pGEX-6P-1. The note with it: for inhibition / maximum inhibition of TEAD4.Yap1 interaction: 24 h incubation at 4° C.; for t1/2^∞ (half-life of inactivation): corresponding to kinact; for inhibition of TEAD4.Yap1 interaction: FP assay, 24 h at 4° C. The procedure:
(§1) GST-TEAD4, GST-TEAD4 Cys367Ser mutant or HIS-TEAD2 interaction with Yap1 was investigated using a fluorescently-labeled peptide (FAM-Yap60-99), consisting of FAM-labeled TEAD-binding peptide fragment of Yap1 (FAM-[…] TVPMCLRKLPASFCKPP), which has a disulfide bridge (American Peptide, Sunnyvale, Calif.). Addition of FAM-Yap60-99 to the TEAD was followed by measurement of changes in polarization. 40 μL of 125 nM GST-TEAD4 WT or GST-TEAD4 Cys367Ser in assay buffer (PBS with 0.01% v/v Triton-X100) or 40 μL of 64 nM HIS-TEAD2 was added to a 384-well black polystyrene plate (Cat. No. 262260; Nunc, Roskilde, Denmark) and incubated with 5 μL of […] serially diluted compounds in assay buffer supplemented with 20% v/v DMSO for 24 h at 4° C. Finally, 5 μL of 160 nM FAM-Yap60-99 peptide was added, the plate centrifuged, and the polarization was measured on an Envision Multilabel Plate Reader (PerkinElmer, Waltham, Mass.) using a filter set with excitation and emission wavelengths of 485 and 535 nm, respectively. Percent inhibition was calculated as relative to a minimum inhibition control, which is without compound, and a maximum inhibition control, which is without a TEAD.
For the determination of the inhibition efficiency kinact/K1, the protein compound incubation time was varied between […], prior to the addition of the FAM-Yap60-99 peptide and fluorescence polarization measurements. The progressive decrease in TEAD activities were plotted against time for all 10 concentrations ([…]) of the compounds and the observed rate of inhibition (kobs) was calculated by fitting a simple exponential function.
The observed rate of inhibition was then plotted against the concentration of the compound and a […] function kobs=kinact[Inhibitor]/K1+[Inhibitor] was fitted to determine the kinact and K1 values.
A general note: In fluorescence polarisation assays a small probe gives low polarisation when free and higher when bound to something large.

For the next test, the target named is TEAD4 (Homo sapiens, UniProt Q15561). In words: Whole protein ESI mass spectrometry, adduct formation. Type of test: binding. On the set-up: TEAD4 (217-434), TEAD4 (217-434) Cys367Ser mutant and Yap1 (Full-length) were expressed as GST-fusion proteins; GST (N, cleaved yes); made in house; host or cells: E. coli BL-21 (DE3), pGEX-6P-1. The note with it: for covalent adduct formation with TEAD4 / adduct with TEAD4: 10 μM TEAD4, 200 μM compound, 24 h at 4° C. The procedure:
(§2) The samples were centrifuged at 20,000×g for […] to remove precipitants before being injected into an empty column on an Agilent 1200 liquid chromatography system (Agilent, Santa Clara, Calif.), using 80% Buffer A (H2O, 5 mM NH4OAc) and 20% Buffer B (ACN, 5 mM NH4OAc), and the masses were detected on an Agilent 6520 Accurate Mass Q-TOF.
It was determined whether a covalent bond formed between inventive compounds and TEAD4. […] The covalent adduct formation by compound 2 was relatively fast (FIG. 3G), reaching nearly 100% adduct formation after 30 min incubation with TEAD4. Because the rate of inhibition developed over a longer timescale (FIG. 3C), compound 2 is proposed to induce a slow conformational change in TEAD4 that prevents its interaction with Yap1. To rule out the possibility that compound 2 induces slow aggregation of TEAD4, and not the proposed slow conformational change, GST-TEAD4 was incubated with DMSO compound 2 for 24 h at 4° C., followed by injection into an SEC column (FIG. 3H). […] A slight increase in dimer formation for the TEAD4 sample incubated with compound 2 occurred compared to the sample incubated with DMSO. […] Furthermore, it is highly unlikely that Cys-367 oxidation was responsible for the lack of 100% inhibition at longer times since it has been shown that covalent bond formation is rapid and complete within less than an hour.

In test [2] the target is T1, TEAD4.Yap1 interaction. In words: Fluorescence polarization, GST-TEAD4 with FAM-Yap60-99 peptide. Type of test: binding. The arrangement: TEAD4 (217-434), TEAD4 (217-434) Cys367Ser mutant and Yap1 (Full-length) were expressed as GST-fusion proteins; made in house; host or cells: E. coli BL-21 (DE3), pGEX-6P-1. The note with it: 0.5, 6, 24, 48 h incubation at 4° C., 0.1-100 μM.

A further test addresses T2, TEAD2 binding to Yap1 (Homo sapiens, UniProt Q15562).
T2 construct: TEAD2 (217-447) was expressed as N-terminal HIS-fusion protein; made in house; host or cells: E. coli BL-21 (DE3), pET-28a
In words: Fluorescence polarization, HIS-TEAD2 with FAM-Yap60-99 peptide. The note with it: 24 h at 4° C. The procedure:
as §1

Test [3] has as its system patient-derived GBM43 glioblastoma spheroids. Put plainly: GBM43 spheroid viability (Alamar blue). In kind it is cell-based, human. The note with it: Homo sapiens; three-dimensional spheroids; read-out: EC50, inhibition of GBM43 spheroid growth. The procedure:
Early-passage GBM43 cells were cultured in ultralow adherence plates (Corning Inc.) at 1 to 2×10^3 cells/mL in DMEM supplemented with 1% […] (Invitrogen), 2% B27 (Invitrogen), 25 ng/mL epidermal growth factor (EGF, 25 ng/mL fibroblast growth factor (FGF) (R&D Systems, Inc.), […], 2 ng/mL platelet growth factor, and 100 ng/mL each of penicillin and streptomycin (Invitrogen Inc.). Individual cells were recovered from spheres by incubation with Accutase (Sigma-Aldrich) for 10-15 minutes. Cells (50-100/well) were then seeded in fresh sphere-forming media in 96-well plates. After 2-3 days, Neurospheres containing 6 to 8 cells were treated with compounds 1, 2, and 5.
HEK-293 were cultured in DMEM with glutamine (Cellgro, Manassas, Va.) supplemented with 10% FBS and 1% penicillin/streptomycin in a 5% CO2 atmosphere at 37° C. Tumors were expanded by passage in the flank of NOD/SCIDγnull mice. To generate GBM43 cell lines, tumors were harvested, disaggregated, and maintained in 2.5% FBS for 14 days on Matrigel-coated plates (BD Biosciences) to remove murine fibroblasts. In-vitro GBM43 cell lines were propagated in DMEM with 10% FBS for no more than 7 passages. Cell line identity was confirmed by DNA fingerprint analysis (IDEXX BioResearch) for species and baseline short-tandem repeat analysis testing. GBM43 spheroids were generated by plating early-passage cells at 2.5×10^4 cells per well in 96-well ultralow attachment plates (Corning Inc.) in DMEM/F12 (1:1; GIBCO) supplemented with 2% B27 supplement (GIBCO), 20 ng/mL epidermal growth factor (EGF), and 20 ng/mL fibroblast growth factor (FGF) (Peprotech) for 2 days. The spheroids were then treated with compounds 1, 2, and 5 and growth analyzed by Alamar blue staining.
Background: Alamar Blue is a resazurin reagent that responds to reducing activity.

The next test concerns the target T3, TEAD4 Cys367Ser mutant (Homo sapiens, UniProt Q15561, C367S).
T3 construct: TEAD4 (217-434) Cys367Ser mutant and Yap1 (Full-length) were expressed as GST-fusion proteins; made in house; host or cells: E. coli BL-21 (DE3), pGEX-6P-1
In words: Whole protein ESI mass spectrometry, adduct formation with mutant. The note with it: 5 μM mutant, 12.5, 50, 200 μM at 4° C., 24 h. Type of test: binding. The procedure: as §2
FIG. 4A illustrates analysis by ESI mass spectrometry after 10 μM TEAD4 Cys367Ser mutant was incubated with 200 μM compound for 24 h at 4° C. FIG. 4B illustrates measurement of fluorescence polarization due to binding when increasing concentration of TEAD4 Cys367Ser mutant was mixed with 16 nM FAM-Yap60-99 peptide (mean±s.d.; n=3). FIG. 4C illustrates measurement of fluorescence polarization due to binding when TEAD4 Cys367Ser mutant was incubated with increasing concentration of compounds for 24 h at 4° C. followed by addition of FAM-Yap60-99 (mean±s.d.; n=3).

Setting [4] is: as tested described herein, read-out: EC50 in the EC50 assay.

T1 sequence (Q15561 217-434): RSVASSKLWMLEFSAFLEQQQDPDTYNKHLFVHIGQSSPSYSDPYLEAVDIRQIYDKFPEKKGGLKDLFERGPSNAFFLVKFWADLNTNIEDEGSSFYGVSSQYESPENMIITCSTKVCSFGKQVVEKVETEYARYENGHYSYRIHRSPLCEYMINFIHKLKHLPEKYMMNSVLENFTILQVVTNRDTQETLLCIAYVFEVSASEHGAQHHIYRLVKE
Chain of TEAD4 (Q15561 217-434): as above
T2 sequence (Q15562 217-447): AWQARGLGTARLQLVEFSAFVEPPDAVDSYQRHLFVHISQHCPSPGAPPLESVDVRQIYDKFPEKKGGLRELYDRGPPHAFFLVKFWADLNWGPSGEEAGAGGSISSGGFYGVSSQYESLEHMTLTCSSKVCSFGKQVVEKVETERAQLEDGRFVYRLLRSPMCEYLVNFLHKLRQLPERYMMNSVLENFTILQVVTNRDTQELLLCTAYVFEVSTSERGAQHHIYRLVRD
T3 sequence (Q15561 217-434 C367S): as the sequence (Q15561 217-434) above, with C151S counted along it

Usually EC50 stands for the concentration at which the effect is half-maximal. For `C=CC(=O)Nc1ccccc1Nc1cccc(C(F)(F)F)c1` [Example 12], the “max (inhibition) in the EC50 assay” value at TEAD4.Yap1 interaction [1] (as tested described herein) was determined as 23%. Moreover, the EC50 at TEAD4.Yap1 interaction [1] (setting [4]) is 13.7 µM.
By kinact is commonly meant the rate constant of inactivation at saturating inhibitor. For the compound `COCCOc1cccc(Nc2ccccc2C(=O)CCl)c1` [Compound 4, 2-chloro-1-(2-((3-(2-methoxyethoxy)phenyl)amino)phenyl)ethanone], the “covalent adduct formation with TEAD4” value at TEAD4 is listed as “formed single adducts”. For the same compound, on TEAD4.Yap1 interaction [1], the “inhibition / maximum inhibition of TEAD4.Yap1 interaction” value is 31% and the “t1/2^∞ (half-life of inactivation)” value is 67.3 h. Also, the “apparent EC50, inhibition of TEAD4.Yap1 protein-protein interaction” value on TEAD4.Yap1 interaction [1] (24 h incubation with TEAD4 at 4° C.) is “substantially lower (nearly an order of magnitude) than its parent compound 2”. Besides, at TEAD4.Yap1 interaction [2] (read-out: maximum rate of inactivation (kinact) (converted)), the kinact is 2.78e-06 s⁻¹. Moreover, at TEAD2 binding to Yap1, the “inhibition of TEAD2 binding to Yap1” value is “much weaker inhibitors of TEAD2 compared to TEAD4”.
Turning to `O=C(CCl)c1ccccc1Nc1cccc(-c2cccs2)c1` [Compound 8, 2-chloro-1-(2-((3-(thiophen-2-yl)phenyl)amino)phenyl)ethanone], at TEAD4, the “adduct with TEAD4” value came out at 100% and the “covalent adduct formation with TEAD4” value is on record as “formed single adducts”. Further, on TEAD4.Yap1 interaction [1], the “inhibition of TEAD4.Yap1 interaction” value is listed as “lack of TEAD4 inhibition”.
Regarding `Cn1nnc2c(C(N)=O)ncn2c1=O` [Temozolomide, temozolomide, reference compound], the EC50 in test [3] amounted to 244 ± 24 µM.
For the compound `NC(=O)CI` [iodoacetamide, reference compound], the “modification of TEAD4 Cys367Ser mutant” value at TEAD4 Cys367Ser mutant is on record as “no modification of the protein, except for a small adduct that was detected only at 200 μM”. For the same compound, the “adduct formation with TEAD4” value on TEAD4 (5 μM TEAD4, 12.5, 50, 200 μM at 4° C., after 6 h) is reported as “modified by a single adduct”. For the same compound, the “inhibition of TEAD4.Yap1 interaction” value on TEAD4.Yap1 interaction [1] is “unable to inhibit”.
As to `COc1ccc(C(=O)CCl)c(Nc2cccc(C(F)(F)F)c2)c1` [Compound 6, 2-chloro-1-(4-methoxy-2-((3-(trifluoromethyl)phenyl)amino)phenyl)ethanone], the “covalent adduct formation with TEAD4” value on TEAD4 is recorded as “formed single adducts”. Further, on TEAD4.Yap1 interaction [1], the “inhibition / maximum inhibition of TEAD4.Yap1 interaction” value was 51% and the “t1/2^∞ (half-life of inactivation)” value is reported as 20 h. Moreover, on TEAD4.Yap1 interaction [1] (24 h incubation with TEAD4 at 4° C., read-out: apparent EC50, inhibition of TEAD4.Yap1 protein-protein interaction), the EC50 came out at 2.3 ± 0.8 µM. Besides, the kinact on TEAD4.Yap1 interaction [2] (read-out: rate of inactivation kinact (converted)) is 9.44e-06 s⁻¹. In addition, at TEAD2 binding to Yap1, the “inhibition of TEAD2 binding to Yap1” value was “much weaker inhibitors of TEAD2 compared to TEAD4”.
Regarding `O=C(CCl)Nc1ccccc1Nc1cccc(C(F)(F)F)c1` [Example 11, 2-chloro-N-(2-((3-(trifluoromethyl)phenyl)amino)phenyl) acetamide], the “max (inhibition) in the EC50 assay” value on TEAD4.Yap1 interaction [1] (as tested described herein) was 50%. On TEAD4.Yap1 interaction [1] (setting [4]), the EC50 turned out to be 11.7 µM.
For `O=C(CCl)c1ccccc1Nc1ccc(-c2cccs2)cc1` [Compound 7, 2-chloro-1-(2-((4-(thiophen-2-yl)phenyl)amino)phenyl)ethanone], at TEAD4, the “adduct with TEAD4” value is 100% and the “covalent adduct formation with TEAD4” value was “formed single adducts”. Moreover, on TEAD4.Yap1 interaction [1], the “inhibition of TEAD4.Yap1 interaction” value was “lack of TEAD4 inhibition”.
Regarding `O=C(CF)c1ccccc1Nc1cccc(C(F)(F)F)c1` [Example 10, 2-fluoro-1-(2-((3-(trifluoromethyl)phenyl)amino)phenyl) ethanone], the “inhibition of TEAD4.Yap1 interaction” value on TEAD4.Yap1 interaction [1] is listed as “minimal inhibition”.
